Consider 2 molecules from US20250064763A1, “METHODS OF TREATMENT OF PRIMARY BILIARY CHOLANGITIS” (Ipsen Pharma, priority 2023, published 2025).

One series deals with patients with PBC. As to conditions: cited from earlier work.
In another series the test system is subjects with PBC. The series is described as follows: Clinical study of elafibranor, biochemical markers in plasma. The settings on record: human, in vivo.

With `CC[C@H]1[C@@H](O)[C@@H]2[C@H](CC[C@]3(C)[C@@H]([C@H](C)CCC(=O)O)CC[C@@H]23)[C@@]2(C)CC[C@@H](O)C[C@@H]12` [OCA, obeticholic acid], in the series with patients with PBC (phase III study, OCA groups compared to placebo), the effect on pruritus result is listed as “exacerbate pruritus”. Also, the liver injury entry in the series on patients with PBC (post marketing reports, PBC patients with compensated or decompensated cirrhosis) was “led to hepatic decompensation and liver failure”. As for `CSc1ccc(C(=O)/C=C/c2cc(C)c(OC(C)(C)C(=O)O)c(C)c2)cc1` [elafibranor], the “biochemical markers in the plasma” value with subjects with PBC was “relevant reduction”.
